The NIST ThermoML archive (doi:10.1016/j.jct.2012.06.012)

Experiment: xn = mol fraction of the nth substance listed
Conditions: Liquid, Vibrating tube method

CCCCCCCCCC [decane] + CCO
Conditions | mass density [kg/m3]
313.09 K, 11000 kPa, x2 = 0.0937 | 723.62
313.09 K, 12000 kPa, x2 = 0.0937 | 724.43
313.09 K, 13000 kPa, x2 = 0.0937 | 725.25
313.09 K, 14000 kPa, x2 = 0.0937 | 726.06
313.09 K, 15000 kPa, x2 = 0.0937 | 726.84
313.09 K, 16000 kPa, x2 = 0.0937 | 727.61
313.09 K, 17000 kPa, x2 = 0.0937 | 728.37
313.09 K, 18000 kPa, x2 = 0.0937 | 729.11
313.09 K, 19000 kPa, x2 = 0.0937 | 729.84
313.09 K, 20000 kPa, x2 = 0.0937 | 730.54
313.11 K, 1000 kPa, x2 = 0.2507 | 717.71
313.11 K, 2000 kPa, x2 = 0.2507 | 718.61
313.11 K, 3000 kPa, x2 = 0.2507 | 719.5
313.11 K, 4000 kPa, x2 = 0.2507 | 720.38
313.11 K, 5000 kPa, x2 = 0.2507 | 721.25
313.11 K, 6000 kPa, x2 = 0.2507 | 722.07
313.11 K, 7000 kPa, x2 = 0.2507 | 722.9
313.11 K, 8000 kPa, x2 = 0.2507 | 723.74
313.11 K, 9000 kPa, x2 = 0.2507 | 724.57
313.11 K, 10000 kPa, x2 = 0.2507 | 725.41
313.11 K, 11000 kPa, x2 = 0.2507 | 726.25
313.11 K, 12000 kPa, x2 = 0.2507 | 727.08
313.11 K, 13000 kPa, x2 = 0.2507 | 727.91
313.11 K, 14000 kPa, x2 = 0.2507 | 728.72
313.11 K, 15000 kPa, x2 = 0.2507 | 729.52
313.11 K, 16000 kPa, x2 = 0.2507 | 730.3
313.11 K, 17000 kPa, x2 = 0.2507 | 731.07
313.11 K, 18000 kPa, x2 = 0.2507 | 731.81
313.11 K, 19000 kPa, x2 = 0.2507 | 732.55
313.11 K, 20000 kPa, x2 = 0.2507 | 733.26
322.98 K, 1000 kPa, x2 = 0.4963 | 715.95
322.98 K, 2000 kPa, x2 = 0.4963 | 716.92
322.98 K, 3000 kPa, x2 = 0.4963 | 717.88
322.98 K, 4000 kPa, x2 = 0.4963 | 718.83
322.98 K, 5000 kPa, x2 = 0.4963 | 719.75
322.98 K, 6000 kPa, x2 = 0.4963 | 720.66
322.98 K, 7000 kPa, x2 = 0.4963 | 721.56
322.98 K, 8000 kPa, x2 = 0.4963 | 722.48
322.98 K, 9000 kPa, x2 = 0.4963 | 723.39
322.98 K, 10000 kPa, x2 = 0.4963 | 724.3
322.98 K, 11000 kPa, x2 = 0.4963 | 725.2
322.98 K, 12000 kPa, x2 = 0.4963 | 726.08
322.98 K, 13000 kPa, x2 = 0.4963 | 726.98
322.98 K, 14000 kPa, x2 = 0.4963 | 727.85
322.98 K, 15000 kPa, x2 = 0.4963 | 728.71
322.98 K, 16000 kPa, x2 = 0.4963 | 729.56
322.98 K, 17000 kPa, x2 = 0.4963 | 730.39
322.98 K, 18000 kPa, x2 = 0.4963 | 731.19
322.98 K, 19000 kPa, x2 = 0.4963 | 731.99
322.98 K, 20000 kPa, x2 = 0.4963 | 732.78
322.99 K, 1000 kPa, x2 = 0.0937 | 707.2
322.99 K, 1000 kPa, x2 = 0.9014 | 745.03
322.99 K, 2000 kPa, x2 = 0.0937 | 708.15
322.99 K, 2000 kPa, x2 = 0.9014 | 746.04
322.99 K, 3000 kPa, x2 = 0.0937 | 709.09
322.99 K, 3000 kPa, x2 = 0.9014 | 747.05
322.99 K, 4000 kPa, x2 = 0.0937 | 710.01
322.99 K, 4000 kPa, x2 = 0.9014 | 748.04
322.99 K, 5000 kPa, x2 = 0.0937 | 710.92
322.99 K, 5000 kPa, x2 = 0.9014 | 749.01
322.99 K, 6000 kPa, x2 = 0.0937 | 711.82
322.99 K, 6000 kPa, x2 = 0.9014 | 749.97
322.99 K, 7000 kPa, x2 = 0.0937 | 712.7
322.99 K, 7000 kPa, x2 = 0.9014 | 750.92
322.99 K, 8000 kPa, x2 = 0.0937 | 713.57
322.99 K, 8000 kPa, x2 = 0.9014 | 751.88
322.99 K, 9000 kPa, x2 = 0.0937 | 714.44
322.99 K, 9000 kPa, x2 = 0.9014 | 752.84
322.99 K, 10000 kPa, x2 = 0.0937 | 715.32
322.99 K, 10000 kPa, x2 = 0.9014 | 753.79
322.99 K, 11000 kPa, x2 = 0.0937 | 716.18
322.99 K, 11000 kPa, x2 = 0.9014 | 754.74
322.99 K, 12000 kPa, x2 = 0.0937 | 717.04
322.99 K, 12000 kPa, x2 = 0.9014 | 755.67
322.99 K, 13000 kPa, x2 = 0.0937 | 717.9
322.99 K, 13000 kPa, x2 = 0.9014 | 756.6
322.99 K, 14000 kPa, x2 = 0.0937 | 718.73
322.99 K, 14000 kPa, x2 = 0.9014 | 757.52
322.99 K, 15000 kPa, x2 = 0.0937 | 719.56
322.99 K, 15000 kPa, x2 = 0.9014 | 758.41
322.99 K, 16000 kPa, x2 = 0.0937 | 720.37
322.99 K, 16000 kPa, x2 = 0.9014 | 759.31
322.99 K, 17000 kPa, x2 = 0.0937 | 721.18
322.99 K, 17000 kPa, x2 = 0.9014 | 760.18
322.99 K, 18000 kPa, x2 = 0.0937 | 721.95
322.99 K, 18000 kPa, x2 = 0.9014 | 761.04
322.99 K, 19000 kPa, x2 = 0.0937 | 722.72
322.99 K, 19000 kPa, x2 = 0.9014 | 761.88
322.99 K, 20000 kPa, x2 = 0.0937 | 723.46
322.99 K, 20000 kPa, x2 = 0.9014 | 762.71
